Data set [1] can be described thus: Aqueous solubility of HEP. It counts as physicochemical.
Data set [2] is described as follows: Exposure after dosing crystalline HEP in animal species. It counts as in vivo. The conditions noted are these: crystalline form dosed in animal species.

Regarding `CCC(=O)c1csc(NC(=O)[C@H]([C@@H](C)c2ccccc2)N2C(=O)N[C@H](c3ccc(OCCO)cc3)C2=O)n1` [HEP, (2S,3S)-2-{(R)-4-[4-(2-hydroxy-ethoxy)-phenyl]-2,5-dioxo-imidazolidin-1-yl}-3-phenyl-N-(4-propionyl-thiazol-2-yl)-butyramide], in data set [1], the Aqueous solubility entry is given as “poor aqueous solubility”. Further, the “Exposure of crystalline form (even nanocrystalline)” value in data set [2] is given as “very low exposure”.

The record behind these values is patent US20120129898A1, “PHARMACEUTICAL COMPOSITIONS FOR POORLY SOLUBLE DRUGS” (priority 2007, published 2012).
